We go through 6 compounds from patent publication US5371077A, “Side chain derivatized 15-oxygenated sterols, methods of using them and a process for preparing them” (William Marsh Rice University, priority 1992, dated 1994).

For one assay, the system named is HMG-CoA reductase. The assay is described as follows: Effects of sterols on HMG-CoA reductase activity in CHO-K1 cells. It counts as cell-based. The settings on record: 4 hours. Here is the method:
Effects of side chain derivatized 15-oxygenated sterols on HMG-CoA reductase activity in CHO-K1 cells
The effects of the sterols on HMG-CoA reductase activity were determined on CHO-K1 cells. The cells were obtained from the American Type Culture Collection (Rockville, Md.). (3RS)-[3-^14 C]HMG-CoA (56 mCi per mmol) and (3RS)-[2-^3 H]mevalonolactone (176 mCi per mmol) were purchased from Amersham Corporation (Arlington Heights, Ill.). Lux tissue culture plasticware was from Miles Scientific (Elkhart, Ind.). Trypsin was obtained from Gibco Laboratories (Grand Island, N.Y.) and Ham's F12 medium, Proc. Natl. Acad. Sci. U.S.A., 53, 288-293 (1965), and phosphate buffered saline (PBS; KCl, 2.7 mM; KH2 PO4, 1.2 mM; NaCl, 137 mM; and Na2 HPO4, 8.1 mM) were obtained from Irvine Scientific (Irvine, Calif.). Fetal calf serum was purchased from Whittaker M.A. Bioproducts (Elkhart, Ind.).
For cell culture experiments, the sterols and C24 acid were added as ethanolic solutions to Ham's F12 medium supplemented with 5% delipidated fetal calf serum (lipid-deficient medium) and allowed to equilibrate for at least 6 hours at room temperature prior to storage at 4° C. Protein in detergent-solubilized extracts of cultured cells was assayed by the Peterson modification, Anal. Biochem., 83, 346-356, of the method of Lowry et al., J. Biol. Chem, 193, 265-275.
The CHO-K1 cells were maintained in Ham's F12 medium supplemented with 5% fetal calf serum (lipid-rich medium) in a humidified atmosphere of 5% CO2 -95% air at 37° C. Each experiment was initiated by inoculating […] cells into 100-mm dishes containing the lipid-rich medium (10 ml), followed by incubating for 48 hours. The medium was aspirated and, after rinsing the plates with PBS (10 ml), the cells were incubated for 18 hours in lipid-deficient media (10 ml). The cells were then incubated with fresh lipid-deficient media (10 ml) containing various concentrations of the 15-oxygenated sterols (from 0.0 μM to 2.5 μM) for 4 hours. Cells were harvested by scraping, and detergent-solubilized cell preparations were obtained for assay of HMG-CoA reductase activity using the method of Brown, Dana and Goldstein, J. Biol. Chem, 249, 789-796. Replicate assays (n=3) were carried out as described by Pinkerton et al., J. Biol. Chem, 257, 1929-1936, except that the specific activity of (3RS)-[3-^14 C]HMG-CoA was 20,000 dpm per nmol.

The nature of assay [1]: Effects of dietary administration of F7-15-ketosterol to rats: serum sterols. Type of assay: in vivo, rats (Sprague-Dawley, male). The settings on record: rat. The source says:
Effects of dietary administration of side chain derivatized 15-oxygenated sterols to rats
Male rats (100-140 g) of the Sprague-Dawley strain were obtained from Harlan Sprague-Dawley (Houston, Tex.) and housed in pairs for 6 days on a light (6:00 AM-6:00 PM)--dark cycle and fed a ground basal diet (Purina Formulab 5008) and water ad libitum. The animals were then divided into groups of 8 animals each, such that the mean values of serum cholesterol and body weight were approximately the same. The animals were then housed individually and were provided diet and water ad libitum. Blood for serum sterol concentrations was obtained at ^~ 8:00 AM from tail vein on days 5 and 9.
The experiment involved administration of 3β-hydroxy-25,26,26,26,27,27,27-heptafluoro-5α-cholest-8(14)-en-15-one (F7 -15-ketosterol) in basal diet as utilized previously in Schroepfer et al., Blochem. Biophys. Res. Commun., 78, 1227-233 (1977). 3β-Hydroxy-25,26,26,26,27,27,27-heptafluoro-5α-cholest-8(14)-en-15-one was administered at levels of 0.025%, 0.05%, 0.075, and 0.10% (by weight) in basal diet. Control rats received basal diet containing no added sterol.
Serum cholesterol was measured by two methods. Day 0 levels were determined using a commercial assay kit ("Single Vial"; Boehringer Mannheim Diagnostics, catalog no. 236691). This methodology could not be applied to the determination of serum cholesterol in serum samples of rats treated with 3β-hydroxy-25,26,26,26,27,27,27-heptafluoro-5α-cholest-8(14)-en-15-one due to the presence of another sterol which also acted as a substrate for cholesterol oxidase. Accordingly, cholesterol levels in serum were determined by gas chromatography (GC). Routine capillary GC analyses of sterols in serum were made on a 0.1 μm Rtx 1701 column (15 m×0.25 mm ID; 14% cyanopropylphenyl, 86% methyl polysiloxane; Restek Corp., Bellefonte, Pa.). Stigmasterol was used as an internal standard. In addition, recovery of sterol after saponification and extraction was monitored through the use of an internal standard of [7(n)-^3 H]cholesteryl oleate. Routine saponification of sample (100 μl) involved treatment with 10% KOH in ethanol (500 μl) followed by extraction with hexane (3×1.5 ml). After evaporation to dryness under nitrogen, the samples were treated with BSTFA-pyridine (1:1, 200 μl) for 1 hour at room temperature under nitrogen. After evaporation to dryness under nitrogen, the silylated material was dissolved in hexane (500 μl) and aliquots (1 μl) were subjected to GC analysis.

Turning to `C[C@H](CCC(=O)O)[C@H]1CC(=O)C2=C3CC[C@H]4C[C@@H](O)CC[C@]4(C)[C@H]3CC[C@@]21C` [I, 3β-hydroxy-15-keto-5α-chol-8(14)-en-24-oic acid], the “HMG-CoA reductase activity (% of control activity)” value was 88.5 % of control activity in the assay on HMG-CoA reductase (sterol concentration 0.1 μM); 77.3 % of control activity with HMG-CoA reductase (sterol concentration 0.25 μM); 69.9 % of control activity in the assay with HMG-CoA reductase (sterol concentration 0.5 μM); 65.0 % of control activity in the assay with HMG-CoA reductase (sterol concentration 1.0 μM); 45.6 % of control activity with HMG-CoA reductase (sterol concentration 2.5 μM).

Regarding `CC(C)=CCC[C@@H](C)[C@H]1CC(=O)C2=C3CC[C@H]4C[C@@H](O)CC[C@]4(C)[C@H]3CC[C@@]21C` [II, 3β-hydroxy-5α-cholesta-8(14),24-dien-15-one], the “HMG-CoA reductase activity (% of control activity)” value in the assay with HMG-CoA reductase (sterol concentration 0.1 μM) is 60.5 % of control activity; in the assay on HMG-CoA reductase (sterol concentration 0.25 μM) it was 67.0 % of control activity; in the assay on HMG-CoA reductase (sterol concentration 0.5 μM), 51.1 % of control activity; with HMG-CoA reductase (sterol concentration 1.0 μM) it was 40.0 % of control activity; with HMG-CoA reductase (sterol concentration 2.5 μM), 35.2 % of control activity.

Take `C[C@H](CCCC(C)(C)O)[C@H]1CC(=O)C2=C3CC[C@H]4C[C@@H](O)CC[C@]4(C)[C@H]3CC[C@@]21C` [III, 3β,25-dihydroxy-5α-cholest-8(14)-en-15-one]: the “HMG-CoA reductase activity (% of control activity)” value was 66.4 % of control activity in the assay on HMG-CoA reductase (sterol concentration 0.1 μM); 56.2 % of control activity in the assay on HMG-CoA reductase (sterol concentration 0.25 μM); 50.2 % of control activity in the assay with HMG-CoA reductase (sterol concentration 0.5 μM); 34.8 % of control activity in the assay with HMG-CoA reductase (sterol concentration 1.0 μM); 23.7 % of control activity with HMG-CoA reductase (sterol concentration 2.5 μM).

As to `CC(C)C(O)CC[C@@H](C)[C@H]1CC(=O)C2=C3CC[C@H]4C[C@@H](O)CC[C@]4(C)[C@H]3CC[C@@]21C` (stereo partly drawn) [IV, 3β,24-dihydroxy-5α-cholest-8(14)-en-15-one], the “HMG-CoA reductase activity (% of control activity)” value in the assay with HMG-CoA reductase (sterol concentration 0.1 μM) was 63.4 % of control activity; with HMG-CoA reductase (sterol concentration 0.25 μM), 33.5 % of control activity; in the assay on HMG-CoA reductase (sterol concentration 0.5 μM), 32.2 % of control activity; in the assay on HMG-CoA reductase (sterol concentration 1.0 μM) it was 34.2 % of control activity; in the assay on HMG-CoA reductase (sterol concentration 2.5 μM) it was 21.5 % of control activity.

For the compound `C[C@H](CCCN(C)C)[C@H]1CC(=O)C2=C3CC[C@H]4C[C@@H](O)CC[C@]4(C)[C@H]3CC[C@@]21C` [V, 3β-hydroxy-24-dimethylamino-5α-chol-8(14)-en-15-one], the “HMG-CoA reductase activity (% of control activity)” value is on record as 87.1 % of control activity in the assay on HMG-CoA reductase (sterol concentration 0.1 μM); 85.4 % of control activity with HMG-CoA reductase (sterol concentration 0.25 μM); 73.3 % of control activity with HMG-CoA reductase (sterol concentration 0.5 μM); 53.5 % of control activity in the assay with HMG-CoA reductase (sterol concentration 1.0 μM); 35.0 % of control activity with HMG-CoA reductase (sterol concentration 2.5 μM).

As for `C[C@H](CCCC(F)(C(F)(F)F)C(F)(F)F)[C@H]1CC(=O)C2=C3CC[C@H]4C[C@@H](O)CC[C@]4(C)[C@H]3CC[C@@]21C` [VI, 3β-hydroxy-25,26,26,26,27,27,27-heptafluoro-5α-cholest-8(14)-en-15-one], the “Serum Sterols: Cholesterol” value worked out at 2.02 ± 0.12 mM in assay [1] (0.025% in diet, day 5, control 2.60 ± 0.12); 2.10 ± 0.10 mM in assay [1] (0.025% in diet, day 9, control 2.62 ± 0.06); 2.06 ± 0.07 mM in assay [1] (0.050% in diet, day 5, control 2.60 ± 0.12); 1.83 ± 0.07 mM in assay [1] (0.050% in diet, day 9, control 2.62 ± 0.06); 1.76 ± 0.05 mM in assay [1] (0.075% in diet, day 5, control 2.60 ± 0.12); 1.76 ± 0.12 mM in assay [1] (0.075% in diet, day 9, control 2.62 ± 0.06). Besides, the “Serum Sterols: Cholesterol” value was 1.97 ± 0.09 mM in assay [1] (0.100% in diet, day 5, control 2.60 ± 0.12) and 1.90 ± 0.10 mM in assay [1] (0.100% in diet, day 9, control 2.62 ± 0.06). Also, the “HMG-CoA reductase activity (% of control activity)” value is given as 68.3 % of control activity with HMG-CoA reductase (sterol concentration 0.1 μM); 49.1 % of control activity in the assay on HMG-CoA reductase (sterol concentration 0.25 μM); 35.6 % of control activity with HMG-CoA reductase (sterol concentration 0.5 μM); 29.0 % of control activity in the assay on HMG-CoA reductase (sterol concentration 1.0 μM); 22.2 % of control activity in the assay with HMG-CoA reductase (sterol concentration 2.5 μM).
